Experimental data published in US20090117215A1, “EXTRACT OF CERATONIA SILIQUA LEAVES AND PODS CONTAINING POLYPHENOLS WITH ANTIOXIDANT AND ANTITUMOR ACTIVITIES” (priority 2001, published 2009).

What was measured:
[1] = tested on: T1 cells (liver tumour cells); assay: Cell proliferation assay (MTS) in T1 hepatic tumour cells; type: cell-based, mice; conditions: for concentration at which proliferation is already inhibited / concentration reaching the peak activity (inhibition of proliferation): hepatic tumour cell cultures (T1), 24 and 48 hours exposure; for inhibition of cell proliferation in liver tumour cells: FIG. 1, after 24 and 48 hours exposure
Description: (§1) Tumour cell cultures (T1) used in the tests derive from transgenic mice hepatocellular carcinoma, in which an over-expression of the c-myc and TGFα had been induced. Cells were kept in L-glutamine-free DMEM medium, HAM F 12 containing 1 mg/ml galactose, 18 mM HEPES, 5 mM Na piruvate, 30 mg/M1 proline, ITS 100×, 2 mM glutamine, 0.1% gentamicin (Sigma-Aldrich, Italy) and added with 10% FBS. Cell lines were cultured in polystyrene plates (Dasit, Italy).
T1 cells were plated in 96 wells-plates at a concentration of 10,000 cells/well and left to sediment for 4-5 hours. Cells were then incubated in EGCG or ECG at a concentration of 20, 40, 60, 80, 160 μg/ml for 24 and 48 hours. The substances were diluted in the culture medium starting from stock solutions (aqueous solution for EGCG and aqueous-ethanol solution (1:1) for ECG). Control cells were treated with solutions containing ethanol in amounts corresponding to that of the samples containing catechins. After 24 or 48 hours, the proliferation was calorimetrically measured using a specific kit (Cell Titer Aqueous Cell Proliferation Assay, Promega) which makes use of a calorimetric transformation reaction of colourless MTS (tetrazolium salt) into coloured formazan by living, proliferating cells. Formazan quantitation was carried out by spectrophotometric analysis at λ=490 nm.

caspase 3 = assay: Evaluation of caspase 3 activation in T1 cell lysates; type: cell-based, mice; conditions: 80 μg/ml, compared with untreated cells; FIG. 2
Description: as §1
Caspase 3 protease activity in cells lysates was determined using a Promega kit. T1 Cells were treated with EGCG and ECG (80 μg/ml) alone or in combination with a caspase inhibitor (Z-VAD-FMK) for 24 or 48 hours. Afterwards a calorimetric substrate (DEVD-pNA) able to evidence the protease activity was added. After incubation for 4 hours at 37° C., the protease activity was determined by spectrophotometric analysis at λ=405 nm.

Row | Structure (SMILES) | concentration at which proliferation is already inhibited [1] [µg/mL] | concentration reaching the peak activity (inhibition of proliferation) [1] [µg/mL] | caspase 3 protease activity (caspase 3) | inhibition of cell proliferation in liver tumour cells [1]
1 | O=C(O[C@@H]1Cc2c(O)cc(O)cc2O[C@@H]1c1ccc(O)c(O)c1)c1cc(O)c(O)c(O)c1 [ECG, (−)-epicatechin-3-gallate] | 40 | 80 | activation | 
2 | Oc1cc(O)c2c(c1)O[C@H](c1cc(O)c(O)c(O)c1)[C@H](O)C2 [EGC, epigallocatechin] |  |  |  | dose-dependent
3 | O=C(O[C@@H]1Cc2c(O)cc(O)cc2O[C@@H]1c1cc(O)c(O)c(O)c1)c1cc(O)c(O)c(O)c1 [EGCG, (−)-epigallocatechin-3-gallate] | 40 | 80 | activation | dose-dependent
